Measurements taken from ChEMBL document CHEMBL1208777, “Synthesis of novel oxime-containing pyrazole derivatives and discovery of regulators for apoptosis and autophagy in A549 lung cancer cells” (Bioorg Med Chem Lett, 2010).
Calls of active or inactive are those of the source. The calls are words filed in the database; no cut-off is given here.

Key:
[1] = system: A549; assay: Induction of necrosis in human A549 cells assessed as LDH release at 40 uM after 48 hrs; format: functional, cell-based
[2] = system: A549; assay: Cytotoxicity against human A549 cells at 10 to 40 uM by SRB assay; format: functional, cell-based; details: TDE = time-dependent effect
[3] = system: A549; assay: Anticancer activity against human A549 cells assessed as occurrence of autophagy at 10 to 40 uM after 48 hrs by acridine orange staining-based fluorescence microscopy; format: functional, cell-based
[4] = system: A549; assay: Cytotoxicity against human A549 cells after 48 hrs by SRB assay; format: functional, cell-based; details: for IC50: A549, 48 h
[5] = system: A549; assay: Anticancer activity against human A549 cells assessed as increase in autophagosome level at 40 uM after 24 hrs by Western blot analysis; format: functional, cell-based
[6] = system: A549; assay: Anticancer activity against human A549 cells assessed as increase in autophagosome level at 20 uM after 24 hrs by Western blot analysis; format: functional, cell-based
[7] = system: A549; assay: Induction of apoptosis in human A549 cells assessed as occurrence of nuclear granulation at 10 to 40 uM after 48 hrs by Hoechst 33258 staining-based fluorescence microscopy; format: functional, cell-based
[8] = system: A549; assay: Cytotoxicity against human A549 cells at 20 uM after 48 hrs by SRB assay; format: functional; details: A549, 48 h
[9] = system: A549; assay: Cytotoxicity against human A549 cells at 40 uM after 48 hrs by SRB assay; format: functional; details: A549, 48 h
[10] = system: A549; assay: Cytotoxicity against human A549 cells at 10 uM after 48 hrs by SRB assay; format: functional; details: A549, 48 h

Compound: CCOC(=O)c1cc(-c2ccc(Cl)cc2)nn1C/C(=N/O)c1ccc(OC)cc1
- Activity [1]: inactive
- Activity [2]: tde
- Activity [3]: Active
- Activity [4]: Dose-dependent effect
- IC50 [4]: 17.8 µM
- Activity [5]: Active

Compound: CCOC(=O)c1cc(-c2ccccc2)nn1C/C(=N/O)c1ccc(Cl)cc1
- Activity [1]: inactive
- Activity [6]: Active
- Activity [2]: tde
- Activity [7]: Active
- Activity [3]: Active
- Activity [4]: Dose-dependent effect
- IC50 [4]: 26.3 µM

Compound: CCOC(=O)c1cc(-c2ccc(OC)cc2)nn1C/C(=N/O)c1ccc(Cl)cc1
- Activity [1]: inactive
- Activity [2]: tde
- Activity [7]: Active
- Activity [3]: Active
- Activity [4]: Dose-dependent effect
- IC50 [4]: 16.3 µM
- Activity [5]: Active

Compound: CCOC(=O)c1cc(-c2ccc(Cl)cc2)nn1C/C(=N/O)c1ccccc1
- Activity [1]: inactive
- Activity [2]: tde
- Activity [7]: Active
- Activity [3]: Active
- Activity [4]: Dose-dependent effect
- IC50 [4]: 31.4 µM
- Activity [5]: Active

Compound: CCOC(=O)c1cc(-c2ccc(OC)cc2)nn1C/C(=N/O)c1ccccc1
- Activity [1]: inactive
- Activity [2]: tde
- Activity [7]: Active
- Activity [4]: Dose-dependent effect
- IC50 [4]: 42.7 µM

Compound: CCOC(=O)c1cc(-c2ccc(OC)cc2)nn1C/C(=N/O)c1ccc(OC)cc1
- Activity [1]: inactive
- Activity [2]: tde
- Activity [3]: Active
- Activity [4]: Dose-dependent effect
- IC50 [4]: 36.5 µM
- Activity [5]: Active

Compound: CCOC(=O)c1cc(-c2ccccc2)nn1C/C(=N/O)c1ccccc1
- Activity [1]: inactive
- Activity [2]: tde
- Activity [7]: Active
- Activity [4]: Dose-dependent effect
- IC50 [4]: 29.8 µM

Compound: CCOC(=O)c1cc(-c2ccccc2)nn1C/C(=N/O)c1ccc(OC)cc1
- Activity [1]: inactive
- Activity [2]: tde
- Activity [4]: Dose-dependent effect
- IC50 [4]: 29.1 µM
- Activity [5]: inactive

Compound: CCOC(=O)c1cc(-c2ccc(Cl)cc2)nn1C/C(=N/O)c1ccc(Cl)cc1
- Activity [1]: inactive
- Activity [6]: Active
- Activity [2]: tde
- Activity [7]: Active
- Activity [3]: Active
- inhibition at 20 µM [8]: 51.9%
- inhibition at 40 µM [9]: 10.3%
- inhibition at 10 µM [10]: 58.6%
- Activity [4]: Dose-dependent effect
- IC50 [4]: 14.6 µM
